Laboratory results taken from patent US9464280B1, “Beta-lactamases with improved properties for therapy” (priority 2014, dated 2016).
≈ marks a conversion by molar mass, not a printed value. Read-outs that look alike come from different tables or passages of the source.

Legend:
[1] = tested on: Escherichia coli ATCC 25922; assay: Microbroth dilution: EC50 of ampicillin and ceftriaxone in absence and presence of P1A; assay type: cell-based; conditions: absence of P1A; ceftriaxone 0.13 to 128 μg/mL
[2] = tested on: Escherichia coli ATCC 25922; assay: as above; assay type: cell-based; conditions: for EC50: Escherichia coli, ATCC25922, P1A 0, read-out: Ceftriaxone EC50
Protocol: (§1) Escherichia coli strain 25922 was cultured from glycerol stocks to logarithmic growth in cation adjusted Mueller-Hinton broth at 37° C. in an atmospheric environment and diluted in cation adjusted Mueller-Hinton broth to achieve a starting in well concentration of 5×10^5 CFU/mL. Serial 2-fold dilution of antimicrobial compounds were prepared in cation adjusted Mueller-Hinton broth to achieve final in well concentration of 128 μg/mL to 0.13 μg/mL for ampicillin and 4 μg/mL 4 ng/mL in the absence or presence of serial 10-fold dilutions of P1A, P3A, or P4A β-lactamase standard, 5 pg/mL to 50 ng/mL for ampicillin and […] to 500 ng/mL for ceftriaxone, ceftazidime, meropenem, cefepime, cefazolin, amp/sulbactam, cefoperazone, cefotaxime, and cefuroxime. Antibiotics were either added to the P1A and incubated for 30 min at 37° C. (pre-incubation) prior to addition of bacteria, or added to the plates following the addition of P1A, P3A, P4A, and bacteria (simultaneous). All concentrations and combinations were evaluated in triplicate in a 96-well plate format that contained media only, compound plus media only (colorimetric control), and untreated bacterial controls.
The 50% effective inhibitory concentration (EC50) of ampicillin and ceftriaxone against Escherichia coli was determined in the absence and presence of P1A β-lactamase. For the purposes of these studies, the stated effective concentration was the initial concentration of ampicillin or ceftriaxone added at the beginning of the experiment, and not a concentration measured during the course of the experiment or at the end of the incubation period.
Antibiotics were either added to the P1A and incubated for 30 min at 37° C. (Pre-incubation) prior to addition of bacteria, or added to the plates following the addition of P1A and bacteria (Simultaneous). All concentrations and combinations were evaluated in triplicate in a 96-well plate format. Following overnight incubation, the 0D625 of the plates was measured in a Spectramax 384 plate reader and the data were imported into a customized Excel spreadsheet for the determination of the 50% effective inhibitory concentration at (EC50) by linear regression analysis. For the purposes of these studies, the stated effective concentration is the initial concentration of ampicillin or ceftriaxone added at the beginning of the experiment, and not a concentration measured during the course of the experiment or at the end of the incubation period.
Antibiotics were either added to the P1A and incubated for 30 min at 37° C. (Pre-incubation) prior to addition of bacteria, or added to the plates following the addition of P1A and bacteria (Simultaneous). All concentrations and combinations were evaluated in triplicate in a 96-well plate format. Following overnight incubation, the OD625 of the plates was measured in a Spectramax 384 plate reader and the data were imported into a customized Excel spreadsheet for the determination of the 50% effective inhibitory concentration (EC50).
Antibiotics were added to the P1A bacteria (Simultaneous). All concentrations and combinations were evaluated in triplicate in a 96-well plate format. Following overnight incubation, the OD625 of the plates was measured in a Spectramax 384 plate reader and the data were imported into a customized Excel spreadsheet for the determination of the 50% effective inhibitory concentration at (EC50) by linear regression analysis.

[3] = tested on: Escherichia coli ATCC 25922; assay: microbe, parasite or virus in culture; assay type: cell-based
Protocol: as §1
Next, the 90% effective inhibitory concentration (EC90) of ampicillin, ceftriaxone, ceftazidime, meropenem, cefepime, cefazolin, amp/sulbactam, cefoperazone, cefotaxime, and cefuroxime against Escherichia coli was determined in the absence and presence of P1A, P3A, or P4A β-lactamase. For the purposes of these studies, the stated effective concentration was the initial concentration of ampicillin, ceftriaxone, ceftazidime, meropenem, cefepime, cefazolin, amp/sulbactam, cefoperazone, cefotaxime, and cefuroxime added at the beginning of the experiment, and not a concentration measured during the course of the experiment or at the end of the incubation period.
Specifically, the assay was performed by diluting (2-fold steps) the chosen antibiotic across the rows of a 96 well dish. The MIC was determined as the point at which the diluted antibiotic transitions from killing to not killing the bacteria (in this case, an E. coli strain that is sensitive to all antibiotics). P1A, P3A, and P4A were diluted (10 fold steps) down the columns (the β-lactamase concentrations increased down the columns). […] The latter point was used as the cut-off point. […] However, for this assay, the absolute MIC is not the most important parameter. The most relevant readout was the β-lactamase concentration at which the apparent MIC increases to the maximum amount of antibiotic tested.
(§2) E coli 29522 was incubated overnight in the presence of serial dilutions of antibiotic and the indicated amounts of β-lactamase protein from cell culture supernatants in a 96 well plate. Bacterial density (OD625) of the cultures was measured and the concentration at which the density was reduced by 90% relative to an untreated bacterial control (EC90) was determined. The assay was performed on two separate days and the data reported as Rep1 and Rep2. NA=not assayed.
as §2, with “determined.” for “determined. The assay was performed on two separate days and the data reported as Rep1 and Rep2. NA=not assayed.”

[4] = tested on: Escherichia coli ATCC 25922; assay: microbe, parasite or virus in culture; assay type: cell-based; conditions: for EC50 / EC90: Escherichia coli, ATCC25922, no enzyme; for EC90: Table 17, read-out: Ceftriaxone EC90
[5] = tested on: E. coli (ATCC 25922); assay: Microtiter plate antibiotic degradation activity assay; assay type: cell-based; conditions: enzyme 10 or 100 ng/ml; antibiotic 10, 100 or 1000 μg/ml; FIG. 8
Protocol: P1A and P4A were screened for degradation of ampicillin, ceftriazone, cefotaxime, cefozolin, cefuroxime, cefoperazone, cefepime, and ceftazidime in a microtiter plate activity assay that was designed to mimic the activity of the beta-lactamases in the gut in the presence of high antibiotic concentrations. The assay was performed by mixing 10, 100 or 1000 μg/ml of the indicated antibiotics with P1A or P4A, at concentrations of 10 or 100 ng/ml. Plates were either incubated for one hour at 37° C. after which E. coli (ATCC 25922) was added, or E. coli was added immediately after the addition of the beta-lactamase enzymes. The plates were incubated overnight and the bacterial growth quantified by measuring the absorbance at 625 nm (OD625) in a Spectramax 384 Plus plate reader. The analysis was performed twice for each beta-lactamase and antibiotic. The beta-lactamase activity of the culture supernatants was determined as positive or negative based on the appearance of bacterial growth in the individual wells. An OD625 of 1.0 or greater indicated maximal bacterial growth, therefore complete antibiotic degradation and high beta-lactamase activity.

[6] = Kinetic parameters of P1A mutant strains; assay type: biochemical
Protocol: (§3) β-lactamase activity of the mutants was further characterised from E. coli cell lysates and B. subtilis growth supernatant with ampicillin, cefotaxime, ceftriaxone, cefuroxime, ceftazidime, meropenem and imipenem. The activities were determined using only one substrate concentration of each antibiotic tested. Selection of the antibiotic concentration was done with the antibiotic concentration as high as was practical, [S]>>Km. Based on these preliminary experiments, more accurate kinetic parameters were determined for a couple of mutants from both the site-directed and the random mutagenesis research lines. All the mutant enzymes selected for more detailed study were expressed in the B. subtilis host strain RS303. The cells carrying the mutated proteins were grown in minimal medium over-night after which the cells were harvested and the supernatant was concentrated in 1:10 with Amicon Ultra-4 centrifugal devices, MWCO 10000 (Amicon). Protein concentration in each culture supernatant was estimated from 12% SDS-PAGE (Criterion XT Bis-Tris, BioRad, Calif., USA) using the P1A reference material A18K31 as a standard. Kinetic parameters were measured for cefotaxime, ceftriaxone and cefuroxime for each selected mutant strain. The site-directed mutants were designed to hydrolyze cefotaxime and random mutants were screened with ceftriaxone, which made these antibiotics natural choices for determining kinetic parameters.

[7] = Preliminary enzymatic activity of P1A mutants from B. subtilis supernatants; assay type: biochemical; conditions: B. subtilis supernatant, one substrate concentration
Protocol: as §3

[8] = cited from earlier work
[9] = concentrated B. subtilis supernatant
[10] = relative values of P1A activities

CO/N=C(\C(=O)N[C@@H]1C(=O)N2C(C(=O)O)=C(CSc3nc(=O)c(=O)[nH]n3C)CS[C@H]12)c1csc(N)n1 [Ceftriaxone]
ceftriaxone EC99 [1]: < 0.13 µg/mL | EC50 ([2]; pre-incubation, Table 12): < 0.13 µg/mL | EC50 ([2]; pre-incubation, Table 13): 0.03 µg/mL | EC50 ([2]; simultaneous, Table 12): < 0.13 µg/mL | EC50 ([2]; simultaneous, Table 13): 0.02 µg/mL | EC50 ([2]; simultaneous, Table 14 repeat analysis): 0.03 µg/mL | Ceftriaxone EC90 ([3]; no enzyme, 2nd value, high test 1 μg/mL, Table 17): 0.06 µg/mL | EC50 ([4]; 1st value, high test 1 μg/mL, Table 16, read-out: Ceftriazone EC50): 0.06 µg/mL (≈ 0.108 µM) | EC90 ([4]; 1st value, high test 1 μg/mL): 0.03 µg/mL (≈ 0.0541 µM) | EC50 ([4]; 2nd value, high test 1 μg/mL, Table 16, read-out: Ceftriazone EC50): 0.06 µg/mL (≈ 0.108 µM) | EC90 ([4]; 2nd value, high test 1 μg/mL): 0.03 µg/mL (≈ 0.0541 µM) | EC50 ([4]; Rep 2, Table 15, read-out: Ceftriaxone EC50): 0.02 µg/mL (≈ 0.0361 µM) | Ceftriaxone EC50 ([4]; no enzyme, Rep 1, Table 15): 0.008 µg/mL

P1A: Wild type; recombinant Bacillus licheniformis 749/C small exo beta-lactamase (PenP), SEQ ID NO: 1
activity for ceftriaxone, cefotaxime, and ceftazidime [5]: no activity | Cefotaxime Vmax [6, 9]: 1.18 nmol/s | Cefotaxime kcat [6, 9]: 16 s⁻¹ | Ceftriaxone Vmax [6, 9]: 2.81 nmol/s | Ceftriaxone kcat [6, 9]: 25 s⁻¹ | Cefuroxime Vmax [6, 9]: 1.25 nmol/s | Cefuroxime kcat [6, 9]: 23 s⁻¹ | Cefotaxime Vmax [6, 10]: 1.00 | Cefotaxime kcat [6, 10]: 1 s⁻¹ | Ceftriaxone Vmax [6, 10]: 1.00 | Ceftriaxone kcat [6, 10]: 1 s⁻¹ | Cefuroxime Vmax [6, 10]: 1.00 | Cefuroxime kcat [6, 10]: 1 s⁻¹ | AMP = ampicillin enzymatic activity [7]: 1.00 multiples of P1A | CAZ = ceftazidime enzymatic activity [7]: 1.00 multiples of P1A | CRO = ceftriaxone enzymatic activity [7]: 1.00 multiples of P1A | CTX = cefotaxime enzymatic activity [7]: 1.00 multiples of P1A | CXM = cefuroxime enzymatic activity [7]: 1.00 multiples of P1A | more active against ampicillin than ceftriaxone ([2]; microbiological assay): 1,000 fold | inhibition by sulbactam ([3]; amp/sulbactam data): effectively inhibited | efficacy in humans with piperacillin/tazobactam [8]: efficacious
